Data published in ChEMBL document CHEMBL5053486, “Defining Target Engagement Required for Efficacy In Vivo at the Retinoic Acid Receptor-Related Orphan Receptor C2 (RORγt)” (J Med Chem, 2021).
≈ marks a conversion by molar mass, not a printed value. Calls of active or inactive are those of the source. The calls are words filed in the database; no cut-off is given here.

Legend:
[1] = human, microsomes, 0.5 h, 2 µM
[2] = Apparent permeability from apical to basolateral side in dog MDCK cells at 20 uM at pH 7.4; type: ADME, cell-based, Canis lupus familiaris
[3] = Solubility of the compound in FaSSIF measured after 16 hrs by HPLC analysis; type: physicochemical
[4] = Fraction unbound in human plasma incubated for 4.5 hrs by LC/MS/MS analysis; type: ADME, cell-free
Mus musculus [5] = experiment: Antiinflammatory activity against glucose-6-phosphate isomerase induced arthritis mouse model assessed as complete prophylaxis at 100 mg/kg administered once daily for 21 days from GPI immunization; type: functional, organism-based; settings: time 21.0 day
Mus musculus [6] = experiment: Antiinflammatory activity against glucose-6-phosphate isomerase induced arthritis mouse model assessed as improvement in clinical score at 10 to 30 mg/kg administered once daily for 21 days from GPI immunization; type: functional, organism-based; settings: dose 10-30 mg/kg, time 21.0 day
Mus musculus [7] = experiment: Antiinflammatory activity against glucose-6-phosphate isomerase induced arthritis mouse model assessed as reduction in IL-17 mRNA expression in paws at 3 mg/kg administered once daily for 21 days from GPI immunization by Taqman PCR analysis relative to control; type: functional; design: scale not given: the % may be the effect or the level left; settings: time 21 day
Mus musculus [8] = experiment: Antiinflammatory activity against glucose-6-phosphate isomerase induced arthritis mouse model assessed as reduction in IL-17 mRNA expression in paws at 10 mg/kg administered once daily for 21 days from GPI immunization by Taqman PCR analysis relative to control; type: functional; design: scale not given: the % may be the effect or the level left; settings: time 21 day
Mus musculus [9] = experiment: Antiinflammatory activity against glucose-6-phosphate isomerase induced arthritis mouse model assessed as reduction in IL-17 mRNA expression in paws at 30 mg/kg administered once daily for 21 days from GPI immunization by Taqman PCR analysis relative to control; type: functional; design: scale not given: the % may be the effect or the level left; settings: time 21 day
PBMC = settings: Mus musculus, dose 30-100 mg/kg, time 20-24 hrs
Description: Inhibition of IL-17A secretion in antiCD3/IL-23 stimulated mouse PBMC cells in mouse plasma at 30 to 100 mg/kg when plasma exposure above 1.8 uM for 20 to 24 hrs

cells = settings: Mus musculus, PBMC
Description: Inhibition of IL-17A secretion in antiCD3/IL-23 stimulated mouse PBMC cells in mouse plasma preincubated for 2 hrs followed by antiCD3/IL23 stimulation and measured after 6 hrs by Taqman PCR analysis

[10] = target: T1, Nuclear receptor ROR-gamma (Homo sapiens) (UniProt P51449); experiment: Displacement of [3H]-25-hydroxycholesterol from His-Flag-tagged human RORgammat LBD (309 to 508 residues) expressed in Escherichia coli at 10 uM measured after 4 hrs by Microbeta counter based analysis relative to control
T1 sequence (whole entry): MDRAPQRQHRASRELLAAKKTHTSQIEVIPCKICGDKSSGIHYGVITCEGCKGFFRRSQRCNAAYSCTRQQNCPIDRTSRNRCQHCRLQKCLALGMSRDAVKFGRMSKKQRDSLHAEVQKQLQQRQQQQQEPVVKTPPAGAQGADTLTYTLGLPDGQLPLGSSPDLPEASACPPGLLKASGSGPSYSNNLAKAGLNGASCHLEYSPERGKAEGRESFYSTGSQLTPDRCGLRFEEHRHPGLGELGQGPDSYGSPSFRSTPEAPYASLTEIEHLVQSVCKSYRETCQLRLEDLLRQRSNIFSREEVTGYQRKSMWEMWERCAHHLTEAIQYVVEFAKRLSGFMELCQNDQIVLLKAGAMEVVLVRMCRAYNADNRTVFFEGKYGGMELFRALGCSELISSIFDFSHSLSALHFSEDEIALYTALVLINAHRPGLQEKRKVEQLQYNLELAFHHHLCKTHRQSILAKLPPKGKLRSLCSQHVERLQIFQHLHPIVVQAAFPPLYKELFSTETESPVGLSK

Row | Structure (SMILES) | CL free [1] [mL/min/kg] | Papp A→B at 20 µM [2] [×10⁻⁶ cm/s] | solubility at 16 h [3] [µg/mL] | fraction unbound at 4.5 h [4] | also measured
1 | CS(=O)(=O)c1ccc(CNC(=O)c2cc3c(s2)C2(CCN(Cc4ccc(C#N)cc4)CC2)OCC3)cc1 | 80.7 |  |  |  | 
2 | CS(=O)(=O)c1ccc(CNC(=O)c2cc3c(s2)C2(CCN(Cc4ccc(C(F)(F)F)cc4)CC2)OCC3)cc1 | 448 |  |  |  | 
3 | C[C@H](c1ccc(C#N)cc1)N1CCC2(CC1)OCCc1cc(C(=O)NCc3ccc(S(C)(=O)=O)cc3)sc12 | 218 |  |  |  | 
4 | CCS(=O)(=O)c1ccc(CNC(=O)c2cc3c(s2)C2(CCN([C@H](C)c4ccc(C#N)cc4)CC2)OCC3)nc1 | 92.2 | 8.5 | 185 (≈ 328 µM) | 0.05 | 
5 | CS(=O)(=O)c1ccc(CNC(=O)c2cc3c(s2)C2(CCN(Cc4ccc(Cl)cc4Cl)CC2)OCC3)cc1 | 3450 |  |  |  | 
6 | CCS(=O)(=O)c1ccc(CNC(=O)c2cc3c(s2)C2(CCN([C@H](C)c4cnc(C(F)(F)F)nc4)CC2)O[C@@H](C)C3)cc1 | 36.2 | 7.57 | 24 (≈ 38.5 µM) | 0.041 | 
7 | CS(=O)(=O)c1ccc(CNC(=O)c2cc3c(s2)C2(CCN(Cc4ccc(Cl)cc4)CC2)OCC3)cc1 | 495 |  |  |  | 
8 | CCS(=O)(=O)c1ccc(CNC(=O)c2cc3c(s2)C2(CCN([C@H](C)c4cnc(C(F)(F)F)nc4)CC2)OCC3)cc1 | 69.5 | 8.56 | 16 (≈ 26.3 µM) | 0.056 | 
9 | CCS(=O)(=O)c1ccc(CNC(=O)c2cc3c(s2)C2(CCN([C@H](C)c4cnc(C(F)(F)F)nc4)CC2)O[C@@H](C)C3)nc1 | 32 | 9.07 | 220 (≈ 353 µM) | 0.12 | 
10 | CCS(=O)(=O)c1ccc(CNC(=O)c2cc3c(s2)C2(CCN([C@H](C)c4ccc(C#N)cc4)CC2)OCC3)cc1 | 406 | 7.07 | 9 (≈ 16 µM) | 0.02 | Activity (Mus musculus [5]): Active; Activity (Mus musculus [6]): Active; Activity (Mus musculus [7]): 82%; Activity (Mus musculus [8]): 90%; Activity (Mus musculus [9]): 88%; inhibition (PBMC): Active; IC50 (cells): 1800 nM
11 | COc1ccccc1-n1cc(CN2CCC3(CC2)OCC(F)(F)c2cc(Cl)sc23)c(C)n1 |  |  |  |  | Activity [10]: 52%
